From patent US11680056B2, “MK2 inhibitors and uses thereof” (Xinthera, Inc., priority 2021, dated 2023)
Read-outs that look alike come from different tables or passages of the source.

Columns and labels:
p38a/PRAK = p38a/PRAK (Homo sapiens (Human), UniProt Q16539); test: p38a/PRAK biochemical assay: activation of PRAK by p38, FITC-HSP27 peptide phosphorylation (IMAP FP); details: 10-point 1:3 dilution, top dose 300 μM; 60 pM active p38a, 1 nM inactive PRAK, 10 μM ATP, 2 h incubation; read-out: p38a/PRAK Enzyme pIC50 (converted)
Procedure, shortened: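 GST-tagged MK2 (F46–H400) and PRAK (M1–Q471), expressed in E. coli, activated by p38 and phosphorylate FITC-HSP27 peptide over 2 h with compound; readout by IMAP fluorescence polarisation (ex 485/em 528 nm). Ten-point 1:3 dilutions, top dose 1 μM for MK2 and 300 μM for PRAK. IC50 after vehicle normalisation; selectivity = IC50(PRAK)/IC50(MK2).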

p38a/MK2 = p38a/MK2 (Homo sapiens (Human), UniProt P49137+Q16539); test: p38a/MK2 biochemical assay: activation of MK2 by p38, FITC-HSP27 peptide phosphorylation (IMAP FP); details: 10-point 1:3 dilution, 60 pM active p38a, 1 nM inactive MK2, 10 μM ATP, 2 h incubation
[1] = top dose 1 μM, read-out: p38a/MK2 (1 μM) Enzyme pIC50 (converted)
[2] = top dose 10 μM, read-out: p38a/MK2 (10 μM) Enzyme pIC50 (converted)

p38a/PRAK, sequence (Q16539 whole entry): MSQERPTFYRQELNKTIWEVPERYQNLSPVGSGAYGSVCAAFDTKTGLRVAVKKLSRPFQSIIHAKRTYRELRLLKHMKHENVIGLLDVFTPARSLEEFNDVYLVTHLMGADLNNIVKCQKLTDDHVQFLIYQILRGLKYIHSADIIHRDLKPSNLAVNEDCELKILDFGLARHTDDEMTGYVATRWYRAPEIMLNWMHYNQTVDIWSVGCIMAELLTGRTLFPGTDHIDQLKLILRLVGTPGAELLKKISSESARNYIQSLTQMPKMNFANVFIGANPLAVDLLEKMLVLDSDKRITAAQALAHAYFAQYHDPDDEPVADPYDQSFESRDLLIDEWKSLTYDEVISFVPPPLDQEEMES
p38a/MK2, sequence (P49137 46-400): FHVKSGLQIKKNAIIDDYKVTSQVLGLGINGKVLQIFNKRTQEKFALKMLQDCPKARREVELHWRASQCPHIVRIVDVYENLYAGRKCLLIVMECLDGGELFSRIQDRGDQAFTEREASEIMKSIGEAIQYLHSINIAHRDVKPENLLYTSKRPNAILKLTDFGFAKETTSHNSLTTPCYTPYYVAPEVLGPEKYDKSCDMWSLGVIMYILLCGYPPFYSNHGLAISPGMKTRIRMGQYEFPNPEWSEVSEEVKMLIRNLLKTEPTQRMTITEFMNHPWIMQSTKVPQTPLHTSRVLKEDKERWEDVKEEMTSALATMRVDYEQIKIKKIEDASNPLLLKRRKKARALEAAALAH
p38a/MK2, sequence (Q16539 whole entry): as the sequence (Q16539 whole entry) above

Compound | IC50 (p38a/PRAK) | IC50 (p38a/MK2; [1]) | IC50 (p38a/MK2; [2]) | p38a/MK2 (10 μM) Enzyme pIC50 (p38a/MK2; top dose 10 μM)
Cc1cc(OCc2ncc(F)cc2F)c(Cl)c(=O)n1-c1cc(-c2ccnc(C(C)(C)O)n2)ncc1C1CC1 (single isomer, unassigned) [Example 40B, rel-3-chloro-5′-cyclopropyl-4-[(3,5-difluoropyridin-2-yl)methoxy]-2′-[2-(2-hydroxypropan-2-yl)pyrimidin-4-yl]-6-methyl-[1,4′-bipyridin]-2-one] | > 316 µM | > 1 µM |  | 
Cc1cnc(-c2nc(C(C)(C)O)cs2)cc1-n1c(C)cc(OCc2ncc(F)cc2F)c(Cl)c1=O (atropisomer, axis not shown) [Example 2, 3-chloro-4-[(3,5-difluoropyridin-2-yl)methoxy]-2′-[4-(2-hydroxypropan-2-yl)-1,3-thiazol-2-yl]-5′,6-dimethyl-[1,4′-bipyridin]-2-one] | 3.98 µM |  |  | 7.5
Cc1cnc(-n2ccc(C(C)(C)O)n2)c(F)c1-n1c(C)cc(OCc2ncc(F)cc2F)c(Cl)c1=O (single isomer, unassigned) [Example 54B, rel-3-chloro-4-((3,5-difluoropyridin-2-yl)methoxy)-3′-fluoro-2′-(3-(2-hydroxypropan-2-yl)-1H-pyrazol-1-yl)-5′,6-dimethyl-2H-[1,4′-bipyridin]-2-one] | 1.58 µM | 0.000631 µM |  | 
Cc1cnc(-c2ccn(C(C)(C)CO)n2)cc1-n1c(C)cc(OCc2ncc(F)cc2F)c(Cl)c1=O (single isomer, unassigned) [Example 25A, rel-3-chloro-4-[(3,5-difluoropyridin-2-yl)methoxy]-2′-[1-(1-hydroxy-2-methylpropan-2-yl)pyrazol-3-yl]-5′,6-dimethyl-[1,4′-bipyridin]-2-one] | 3.16 µM |  | 0.0316 µM | 
Cc1cnc(-c2nc(C(C)(C)O)cs2)cc1-n1c(C)cc(OCc2ncc(F)cc2F)cc1=O (atropisomer, axis not shown) [Example 8, 4-[(3,5-difluoropyridin-2-yl)methoxy]-2′-[4-(2-hydroxypropan-2-yl)-1,3-thiazol-2-yl]-5′,6-dimethyl-[1,4′-bipyridin]-2-one] | > 316 µM |  |  | <5.0
Cc1cnc(-c2ccc3c(n2)[C@H](O)CC3)cc1-n1c(C)cc(OCc2ncc(F)cc2F)c(Cl)c1=O (single isomer, unassigned) [Example 18A] | 25.1 µM |  | 0.158 µM | 
Cc1cnc(-c2ccnc(CC3(O)CC3)n2)cc1-n1c(C)cc(OCc2ncc(F)cc2F)c(Cl)c1=O (single isomer, unassigned) [Example 48A, rel-3-chloro-4-[(3,5-difluoropyridin-2-yl)methoxy]-2′-{2-[(1-hydroxycyclopropyl)methyl]pyrimidin-4-yl}-5′,6-dimethyl-[1,4′-bipyridin]-2-one] | 2 µM | 0.00501 µM |  | 
Cc1cnc(-c2cccc(C(C)(O)CO)n2)cc1-n1c(C)cc(OCc2ncc(F)cc2F)c(Cl)c1=O (single isomer, unassigned) [Example 36C, rel-3-chloro-4-[(3,5-difluoropyridin-2-yl)methoxy]-2′-[6-(1,2-dihydroxypropan-2-yl)pyridin-2-yl]-5′,6-dimethyl-[1,4′-bipyridin]-2-one] | > 316 µM | > 1 µM |  | 
Cc1cnc(-c2cccc([C@H](O)CO)n2)cc1-n1c(C)cc(OCc2ncc(F)cc2F)c(Cl)c1=O (single isomer, unassigned) [Example 34B, rel-3-chloro-4-[(3,5-difluoropyridin-2-yl)methoxy]-2′-[6-(1,2-dihydroxyethyl)pyridin-2-yl]-5′,6-dimethyl-[1,4′-bipyridin]-2-one] | 6.31 µM |  | 0.0126 µM | 

Now from value to molecule, other results behind:

IC50 (p38a/PRAK) | IC50 (p38a/MK2; [1]) | IC50 (p38a/MK2; [2]) | Compound | p38a/MK2 (10 μM) Enzyme pIC50 (p38a/MK2; top dose 10 μM)
2.51 µM | 0.00501 µM |  | Cc1cnc(-n2ccc(C(C)(C)CO)n2)cc1-n1c(C)cc(OCc2ncc(F)cc2F)c(Cl)c1=O (single isomer, unassigned) [Example 37A, rel-3-chloro-4-[(3,5-difluoropyridin-2-yl)methoxy]-2′-[3-(1-hydroxy-2-methylpropan-2-yl)pyrazol-1-yl]-5′,6-dimethyl-[1,4′-bipyridin]-2-one] | 
0.794 µM | 0.000126 µM |  | Cc1cnc(-c2ccnc(C(C)(C)O)n2)c(F)c1-n1c(C)cc(OCc2ncc(F)cc2F)c(Cl)c1=O (single isomer, unassigned) [Example 53B, rel-3-chloro-4-[(3,5-difluoropyridin-2-yl)methoxy]-3′-fluoro-2′-[2-(2-hydroxypropan-2-yl)pyrimidin-4-yl]-5′,6-dimethyl-[1,4′-bipyridin]-2-one] | 
15.8 µM |  | 0.0316 µM | Cc1cc(COc2cc(C)n(-c3cc(-c4ccnc(C(C)(C)O)n4)ncc3C)c(=O)c2Cl)ncc1F (single isomer, unassigned) [Example 22A, rel-3-chloro-4-[(5-fluoro-4-methylpyridin-2-yl)methoxy]-2′-[2-(2-hydroxypropan-2-yl)pyrimidin-4-yl]-5′,6-dimethyl-[1,4′-bipyridin]-2-one] | 
> 316 µM | > 0.1 µM |  | Cc1cnc(-c2cccc(C(C)(C)O)[n+]2[O-])c(F)c1-n1c(C)cc(OCc2ncc(F)cc2F)c(Cl)c1=O (single isomer, unassigned) [Example 62B, rel-3-chloro-4-((3,5-difluoropyridin-2-yl)methoxy)-3′-fluoro-6″-(2-hydroxypropan-2-yl)-5′,6-dimethyl-2-oxo-2H-[1,4′:2′,2″-terpyridine] 1″-oxide] | 
> 316 µM | > 1 µM |  | Cc1cnc(-c2ccnc(N(C)CCO)n2)cc1-n1c(C)cc(OCc2ncc(F)cc2F)c(Cl)c1=O (single isomer, unassigned) [Example 43B, rel-3-chloro-4-[(3,5-difluoropyridin-2-yl)methoxy]-2′-{2-[(2-hydroxyethyl)(methyl)amino]pyrimidin-4-yl}-5′,6-dimethyl-[1,4′-bipyridin]-2-one] | 
> 316 µM | > 0.1 µM |  | Cc1cnc(-c2cccc(C(C)(C)O)n2)c(F)c1-n1c(C)cc(OCc2ncc(F)cc2F)c(Cl)c1=O (single isomer, unassigned) [Example 63A, rel-3-chloro-4-[(3,5-difluoropyridin-2-yl)methoxy]-1-[3-fluoro-6′-(2-hydroxypropan-2-yl)-5-methyl-[2,2′-bipyridin]-4-yl]-6-methylpyridin-2-one] | 
> 316 µM | > 0.1 µM |  | [2H]C([2H])(Oc1cc(C)n(-c2c(C)cnc(-c3cccc(C(C)(C)O)[n+]3[O-])c2F)c(=O)c1Cl)c1ncc(F)cc1F [Example 68A, rel-4′-{3-chloro-4-[(3,5-difluoropyridin-2-yl) (2H2)methoxy]-6-methyl-2-oxopyridin-1-yl}-3′-fluoro-6-(2-hydroxypropan-2-yl)-5′-methyl-[2,2′-bipyridin]-1-ium-1-olate] | 
2.51 µM | 0.0158 µM |  | Cc1cnc(-n2ccc(CC(C)(C)O)n2)cc1-n1c(C)cc(OCc2ncc(F)cc2F)c(Cl)c1=O (single isomer, unassigned) [Example 46A, rel-3-chloro-4-[(3,5-difluoropyridin-2-yl)methoxy]-2′-[3-(2-hydroxy-2-methylpropyl)pyrazol-1-yl]-5′,6-dimethyl-[1,4′-bipyridin]-2-one] | 
> 316 µM | > 1 µM |  | Cc1cnc(-c2ccnc([C@@H](O)C3CC3)n2)cc1-n1c(C)cc(OCc2ncc(F)cc2F)c(Cl)c1=O (single isomer, unassigned) [Example 35D, rel-3-chloro-2′-{2-[cyclopropyl(hydroxy)methyl]pyrimidin-4-yl}-4-[(3,5-difluoropyridin-2-yl)methoxy]-5′,6-dimethyl-[1,4′-bipyridin]-2-one] | 
